# Measured values reported in patent publication US20030158529A1 (priority 2001, published 2003).
# Like-named read-outs stand apart in the source and are kept apart here.
# Key:
# Type in all cases: cell-based, Staphylococcus aureus
# [1] = system: S. aureus (MN8)
# [2] = system: S. aureus FRI-1169
# [3] = system: S. aureus FRI-1187
Compound,CFU/mL [1] [CFU/mL],ELISA: TSST-1 ng/OD unit [1] [ng/OD unit],Optical Density 600 nm [1],Reduction of Toxin (%) [1] [%],"ELISA: TSST-1 ng/OD unit ([1]; S. aureus MN8, 2 μg/mL test compound, 24 hours) [ng/OD unit]","Optical Density 600 nm ([1]; S. aureus MN8, 2 μg/mL test compound, 24 hours, 35° C.)","ELISA: TSST-1 ng/OD unit ([1]; S. aureus MN8, 0.01 μg/mL test compound, 24 hours) [ng/OD unit]","Optical Density 600 nm ([1]; S. aureus MN8, 0.01 μg/mL test compound, 24 hours, 35° C.)",CFU/mL [2] [CFU/mL],Optical Density 600 nm [2],"ELISA: TSST-1 ng/OD unit ([2]; S. aureus FRI-1169, 0.5 μg/mL) [ng/OD unit]",CFU/mL [3] [CFU/mL],Optical Density 600 nm [3],"ELISA: TSST-1 ng/OD unit ([3]; S. aureus FRI-1187, 0.5 ug/mL) [ng/OD unit]"
"Oc1ccc(Cc2ccccc2)cc1 [4-Hydroxydiphenylmethane, 4-hydroxydiphenyl methane]",1.1E+08,785,0.581,,,,,,,,,,,
"Oc1c(Cl)cc(Cl)c(Cl)c1Cc1c(O)c(Cl)cc(Cl)c1Cl [Hexachlorophene, hexachlorophene]",3.7E+08,,,68,330,0.350,,,,,,,,
"Oc1cc(Cl)ccc1Oc1ccc(Cl)cc1Cl [Triclosan, triclosan]",1.0E+08,,,88,,,129,0.271,1.50E+09,0.625,40,1.56E+09,0.156,95
